The text below walks through data of US20230240290A1, “USE OF (Z)-3-HEXENYL ESTERS AND METHOD FOR PROTECTING PLANTS AGAINST PESTS” (UNIVERSITAT POLITÈCNICA DE VALÈNCIA, priority 2020, published 2023).

Experiment [1] has as its system LOX2 (precursor of JA jasmonic acid). The experiment can be described thus: Transcriptional response of LOX2 in Carrizo citrange plants exposed to the volatile. Format: in vivo. As to conditions: intact Carrizo citrange plants exposed 24 h; n=6. The method, then:
Two weeks after seed germination, the seedlings were individually transplanted into pots (8×8×8 cm). The plants were kept in a greenhouse with a plastic cover at approximate climatic conditions of 25±5° C., a relative humidity of 65%±5%, and a natural light photoperiod, about 14:10 h (light:dark). Carrizo citrange plants that had not received any pesticide treatment at 8 weeks of age (approximately 20 cm tall) were used. The volatile (Z)-3-hexenyl propanoate was obtained from Sigma-Aldrich (St. Louis, Mo., USA). The volatile was exposed by using a 2×2 cm piece of filter paper on which 10 μl of a solution containing the corresponding volatile at a concentration of 1:10,000 [(Z)-3-hexenyl propanoate:methanol] was impregnated as an emitting source of the corresponding volatile (Pérez-Hedo, M. et al. Biocontrol, 63: 203-213 (2018)). […]
The methodology followed for the extraction and quantification of gene expression was described by Pérez-Hedo et al. Journal of Pest Science 3: 543-554 (2015). The primers used were forward primer: 5′-[…]-3′ (SEQ ID NO: 11) and reverse primer: 5′-[…]-3′ (SEQ ID NO: 12) for the quantification of LOX2, forward primer: 5′-[…]-3′ (SEQ ID NO: 13) and reverse primer: 5′-[…]-3′ (SEQ ID NO: 14) for PAL and forward primer: 5′-[…]-3′ (SEQ ID NO: 15) and reverse primer: 5′-[…]-3′ (SEQ ID NO: 16) for the NPR5 gene. […]

The test system of experiment [2] is PR1 (marker gene for the SA signaling pathway). Kind of experiment: Field (commercial greenhouse) assay, transcriptional response of PR1 in tomato plants. Format: in vivo, tomato cv Raf. The following applies: LD dispenser every 20 m2, at 30 and 60 days. The method, then: (§1) To know the behavior of the dispensers loaded with (Z)-3-hexenyl propionate under real cultivation conditions, four commercial greenhouses for tomato cv Raf located in Xilxes (Castellón province), with a history of problems with T. absoluta contamination at the end of winter, were selected. An experimental design of randomized blocks was carried out where each greenhouse was considered a block with two treatments per block and 4 repetitions per treatment. […]
(§2) Twenty plants randomly chosen by repetition were sampled weekly for 11 weeks, beginning 30 Jan. […] First, the number of leaflets infested by T. absoluta per plant was counted. Then the number of N. tenuis (adults and nymphs) throughout the apical third of each plant (leaves, flowers and shoots) was counted. Following the methodology described above, 6 samples were taken from the apical part of each plant per repetition, and these samples were immediately introduced into liquid nitrogen to quantify the expression of the PR1 and PIN2 genes (described in Example 1 and Example 2). The expression of these genes was quantified one day before, 4, and 8 weeks after hanging the dispensers in the greenhouses.

The test system of another experiment is Tuta absoluta. Kind of experiment: Field (commercial greenhouse) assay, leaflets infested by T. absoluta. The experiment is classed as in vivo. As to conditions: commercial tomato greenhouse, infested leaflets per plant, 500 dispensers/ha. The method, then:
as §1, §2

For the compound `CC/C=C\CCOC(=O)CC` [(Z)-3-hexenyl propanoate], the “Transcriptional response of LOX2 compared to control” value in experiment [1] is listed as “significantly overexpressed”. Besides, the “Expression of PR1 compared to plants in the control zone” value in experiment [2] is on record as “significantly higher”. Also, the “Infestation of T. absoluta lower than control” value in the experiment on Tuta absoluta was “about 58%”.
